Assays:
[1] = test system: spontaneously hypertensive rats (SHRs); test: Antihypertensive action in spontaneously hypertensive rats (SHRs); assay type: in vivo, rat; conditions: SHR, oral
Protocol: Method: Male SHR at ages ranging from 20 to 24 weeks were anesthetized with pentobarbital.sodium (50 mg/kg, i.p.) and, from the femoral artery of each animal, a polyethylene tube was inserted. The polyethylene tube was connected to a pressure transducer and blood pressure after oral administration of drugs was recorded continuously under non-anesthesia. The animals, after the operation, were allowed to freely access to drinking water and eating, until administration of the drugs. The compounds were all orally administered as a suspension in gum arabic (2 ml/kg).

PDGF-induced contraction = test: Inhibitory effects on the contraction due to PDGF (isolated thoracic aorta strips); parameters: species or system stroke prone spontaneously hypertensive rats; conditions: 1.7 nM PDGF-AB, drug added 30 minutes before
Protocol: Method: The thoracic aorta of stroke prone spontaneously hypertensive rats at ages ranging from 16 to 36 weeks were isolated, and strip (2 mm in width, 2 cm in length) were prepared from the aorta. Each strip was mounted in 10 ml of an organ bath, which was loaded at 2 g and allowed to stabilized for 2 to 3 hours. As the nutrient, a Krebs-Henseleit solution, bubbled with a mixture gas (95% O2, 5% CO2), was used. At the time when the contraction response against 60 mM KCl becomes constant, each strip was applied by 1.7 nM of PDGF-AB (Cosmobio Inc.) for contraction. Observation was continued until the contraction become maximum and stable (30 to 40 minutes after application of PDGF-AB). Then, the strips were washed, and, in about one hour later (after the tone of the vaso-contraction was recovered to the original level), 10 μl of the drug (DMSO solution) was added. Thirty minutes after drug, 1.7 nM of PDGF-AB was added again and subjected to observation until the contraction became maximum. The PDGF-AB-induced contraction was isometrically recorded on a polygraph (Nihon Denki San-ei). From the contractile response of the strips to PDGF-AB in the absence or presence of drugs, % inhibition of each drug was calculated. IC50 value for the inhibitory effects was calculated in accordance with the Filler's theorem using the least squares method.

hamsters = test: Cholesterol lowering effects in hamsters; assay type: in vivo, Syrian hamsters
Protocol: Method: Syrian hamsters of 10 weeks old were stabilized with common feed for two weeks. The animals were grouped based on the total cholesterol in blood. The vehicle (water) or drug was orally administered in a volume of 2 ml/kg for two weeks. During the period of the administration, blood was collected from retinal vessels with passage of time and the total cholesterol and triglyceride in blood were determined. On the other hand, blood was collected from abdominal aorta on the second week after the consecutive administration of the test compounds to determine the total cholesterol, triglyceride and HDL (high density lipid)-cholesterol in blood. Cholesterol C-test, triglyceride G-test and HDL-cholesterol E test (all manufactured by Wako Pure Chemical Industries, Ltd.) were used for the determination of these parameters, respectively.

5/6 nephrectomized rats = test: Antiproteinuric effect in 5/6 nephrectomized rats; assay type: in vivo, Sprague Dawley rats
Protocol: Method: Male Sprague Dawley rats of five-week old (Japan Clea) were anesthetized with pentobarbital.sodium (50 mg/kg, i.p.), and the right kidney was excised by dorsal incision, and its two-thirds were cut. Two weeks later, the whole of left kidney was removed. In the Sham group, only the second operation was performed. In two weeks after the second operation, urine was collected for 24 hours under drinking water ad libitum. Urinary albumin and total protein were quantitatively determined by the use of A/G B-test (Wako). On the following day of collecting urine, the blood pressure was measured by the tail cuff method. Test animals showing more proteinuria than that of Sham group were selected. Based on the amount of the proteinuria and the blood pressure level, the animals were grouped so that, the average and distribution of urinary protein and blood pressure same in each group. The drug was suspended in gumarabic/water or dissolved in water, and orally administered once a day for 6-8 weeks in a volume of 2 ml/kg. The administration was consecutively performed, and, at 2, 4, 6 and 8th weeks of treatment, urine was collected and blood pressure was measured. The vehicle group was orally administered with only water at a dose of 2 ml/kg.

Hs68 cells = test: PDGF-induced proliferation in Hs68 cells (3H-thymidine uptake); assay type: cell-based, Human; conditions: Hs68, PDGF-BB 5 ng/ml, concentration 1 × 10^−6 M
Protocol: Method: Human skin fibroblasts (Hs68, Institute for Fermentation, Osaka) were seeded in 48-well plates precoated with collagen type I (Falcon) (25000 cells/well), and cultured for one day. Then, the cells were cultured in Dulbecco's modified Eagle's medium (high glucose) containing 0.1% bovine serum albumin for 48 hours. Fifteen (15) minutes after the addition of the drug, the cells were stimulated with 5 ng/ml of PDGF-BB (Becton Dickinson Labware) containing 3H-thymidine (final concentration 0.4 mCi/ml) (Amersham). After 24 hours, the reaction was stopped with 7.5% trichloroacetic acid at 4° C. and the plate was allowed to stand at 4° C. for 30 minutes. The cells were washed with Ca^2+- and Mg^2-free phosphate-buffered saline (PBS), after then 0.1% sodium dodecyl sulfate (SDS)/0.4N NaOH was added and the plate was allowed to stand at 37° C. for 1 hour to lyze the cells. The whole content of each well was taken in a vial and neutralized with 1N HCl, and then toluene scintillator (Wako Pure Chemical Ind.) was added to each vial. After stirring, the amount of ^3H-thymidine incorporated in the cells was determined with a liquid scintillation counter. The cellular uptake of ^3H-thymidine was used as an indicator of cell proliferation. The effect of the drug on the PDGF-BB (5 ng/ml) uptake of ^3H-thymidine was expressed as % inhibition.

[2] = 10 mg/kg oral once a day, 0 weeks
[3] = 10 mg/kg oral once a day, 2 weeks
[4] = 10 mg/kg oral once a day, 4 weeks
[5] = 10 mg/kg oral once a day, 6 weeks
[6] = 10 mg/kg oral once a day, 8 weeks
[7] = 3 mg/kg oral once a day, 0 weeks
[8] = 3 mg/kg oral once a day, 2 weeks
[9] = 3 mg/kg oral once a day, 4 weeks
[10] = 3 mg/kg oral once a day, 6 weeks
[11] = 3 mg/kg oral once a day, 8 weeks

In the case of “1,2-Dihydro-3-methyl-1-[4-(methoxycarbonylamino)butan-1-yl]-1,4,7b-triazacyclopento[cd]inden-2-one.hydrochloride [Example 37]”, the blood-pressure change ([1]; 30 mg/kg, after 5 hrs.) is reported as −14 [after 5 hrs.] mmHg.

With `Cl.O=C1c2cnc3cccc(n23)CN1CCCCCNS(=O)(=O)C(F)(F)F` [Example 8, 4,5-Dihydro-4-[5-(trifluoromethanesulfonamido)pentan-1-yl]-3H-1,4,8b-triazaacenaphthylen-3-one.hydrochloride] the IC50 (PDGF-induced contraction) was 0.31 µM, the “TC (total cholesterol in blood), % of Vehicle” value (hamsters; 10 mg/kg oral for two weeks) was 81.5 % of Vehicle and the “TC-HDL ([total cholesterol value]-[HDL-cholesterol value]), % of Vehicle” value (“TC-HDL … % of Vehicle” for short) (hamsters; 10 mg/kg oral for two weeks) was 77.1 % of Vehicle.

For `Cl.O=c1c2cccc3ncc(c(=O)n1CCCCNS(=O)(=O)C(F)(F)F)n32` [Example 11, 4,5-Dihydro-4-[4-(trifluoromethanesulfonamido)butan-1-yl]-3H-1,4,8b-triazaacenaphthylene-3,5-dione.hydrochloride], the Urinary albumin excretion (5/6 nephrectomized rats; [2]) was 10.2 mg/day, the Urinary protein excretion (5/6 nephrectomized rats; [2]) was 115.1 mg/day and the Urinary albumin excretion (5/6 nephrectomized rats; [3]) was 19.8 mg/day. It also gave a Urinary protein excretion (5/6 nephrectomized rats; [3]) of 69.1 mg/day, a Urinary albumin excretion (5/6 nephrectomized rats; [4]) of 30.3 mg/day and a Urinary protein excretion (5/6 nephrectomized rats; [4]) of 62.5 mg/day. It also gave a Urinary albumin excretion (5/6 nephrectomized rats; [5]) of 26.0 mg/day, a Urinary protein excretion (5/6 nephrectomized rats; [5]) of 170.3 mg/day and a Urinary albumin excretion (5/6 nephrectomized rats; [6]) of 38.3 mg/day. The Urinary protein excretion (5/6 nephrectomized rats; [6]) was 125.4 mg/day and the blood-pressure change ([1]; 30 mg/kg, after 7 hrs.) was −31 [after 7 hrs.] mmHg.

With `Cl.O=C1c2cnc3cccc(n23)CN1CCCCNS(=O)(=O)C(F)(F)F` [Example 6, 4,5-Dihydro-4-[4-(trifluoromethanesulfonamido)butan-1-yl]-3H-1,4,8b-triazaacenaphthylen-3-one.hydrochloride] the Urinary albumin excretion (5/6 nephrectomized rats; [2]) was 6.8 mg/day, the Urinary protein excretion (5/6 nephrectomized rats; [2]) was 114.1 mg/day and the Urinary albumin excretion (5/6 nephrectomized rats; [3]) was 13.5 mg/day. The Urinary protein excretion (5/6 nephrectomized rats; [3]) was 103.0 mg/day, the Urinary albumin excretion (5/6 nephrectomized rats; [4]) was 17.2 mg/day and the Urinary protein excretion (5/6 nephrectomized rats; [4]) was 93.9 mg/day. The Urinary albumin excretion (5/6 nephrectomized rats; [5]) was 13.1 mg/day, the Urinary protein excretion (5/6 nephrectomized rats; [5]) was 167.2 mg/day and the Urinary albumin excretion (5/6 nephrectomized rats; [6]) was 24.8 mg/day. For the same compound, the Urinary protein excretion (5/6 nephrectomized rats; [6]) was 117.3 mg/day, the IC50 (PDGF-induced contraction) was 1.27 µM and the blood-pressure change ([1]; 10 mg/kg, after 4 hrs.) was −19 [after 4 hrs.] mmHg. For the same compound, the “TC (total cholesterol in blood), % of Vehicle” value (hamsters; 10 mg/kg oral for two weeks) was 89.5 % of Vehicle and the “TC-HDL … % of Vehicle” value (hamsters; 10 mg/kg oral for two weeks) was 84.6 % of Vehicle.

For `Cc1nc2cccc3n2c1CN(CCCCNS(=O)(=O)C(F)(F)F)C3.Cl.Cl` [Example 3, 4,5-Dihydro-2-methyl-4-[4-(trifluoromethanesulfonamido)butan-1-yl]-3H-1,4,8b-triazaacenaphthylene.dihydrochloride], the IC50 (PDGF-induced contraction) was 0.29 µM, the “TC (total cholesterol in blood), % of Vehicle” value (hamsters; 10 mg/kg oral for two weeks) was 82.2 % of Vehicle and the “TC-HDL … % of Vehicle” value (hamsters; 10 mg/kg oral for two weeks) was 79.0 % of Vehicle.

In the case of `Cc1ncc2ccc3n(CCCCCNS(=O)(=O)C(F)(F)F)c(=O)c1n23.Cl` [Example 26], the IC50 (PDGF-induced contraction) is reported as 0.37 µM, the blood-pressure change ([1]; 10 mg/kg, after 7 hrs.) is reported as −22 [after 7 hrs.] mmHg and the “TC (total cholesterol in blood), % of Vehicle” value (hamsters; 30 mg/kg oral for two weeks) is reported as 74.5 % of Vehicle. The “TC-HDL … % of Vehicle” value (hamsters; 30 mg/kg oral for two weeks) was 72.1 % of Vehicle.

For “1,2-Dihydro-3-methyl-1-[4-[(2,2,2-trifluoro)ethanesulfonamido]butan-1-yl]-1,4,7b-triazacyclopent[cd]inden-2-one.hydrochloride [Example 38]”, the blood-pressure change ([1]; 30 mg/kg, after 4 hrs.) was −19 [after 4 hrs.] mmHg.

`Cl.Cl.O=S(=O)(NCCCCN1Cc2cccc3ncc(n23)C1)C(F)(F)F` [Example 1, 4,5-Dihydro-4-[4-(trifluoromethanesulfonamido)butan-1-yl]-3H-1,4,8b-triazaacenaphthylene.dihydrochloride] showed a Urinary albumin excretion (5/6 nephrectomized rats; [7]) of 11.2 mg/day, a Urinary protein excretion (5/6 nephrectomized rats; [7]) of 114.5 mg/day and a Urinary albumin excretion (5/6 nephrectomized rats; [8]) of 16.9 mg/day. For the same compound, the Urinary protein excretion (5/6 nephrectomized rats; [8]) was 117.0 mg/day, the Urinary albumin excretion (5/6 nephrectomized rats; [9]) was 18.4 mg/day and the Urinary protein excretion (5/6 nephrectomized rats; [9]) was 98.2 mg/day. It also gave a Urinary albumin excretion (5/6 nephrectomized rats; [10]) of 13.0 mg/day, a Urinary protein excretion (5/6 nephrectomized rats; [10]) of 156.3 mg/day and a Urinary albumin excretion (5/6 nephrectomized rats; [11]) of 25.1 mg/day. The Urinary protein excretion (5/6 nephrectomized rats; [11]) was 102.8 mg/day, the IC50 (PDGF-induced contraction) was 2.13 µM and the blood-pressure change ([1]; 10 mg/kg, after 5 hrs.) was −21 [after 5 hrs.] mmHg. For the same compound, the “TC (total cholesterol in blood), % of Vehicle” value (hamsters; 30 mg/kg oral for two weeks) was 64.1 % of Vehicle and the “TC-HDL … % of Vehicle” value (hamsters; 30 mg/kg oral for two weeks) was 68.9 % of Vehicle.

In the case of `O=C1c2cnc3cccc(n23)CN1CCC1CCN(S(=O)(=O)C(F)(F)F)CC1` [86 (ii), 4,5-dihydro-4-[2-(1-trifluoromethane-sulfonylpiperidin-4-yl)ethan-1-yl]-3H-1,4,8b-triazaace-naphthylen-3-one], the “% Inhibition of cell proliferation (3H-thymidine uptake)” value (Hs68 cells) is reported as 96.6%.

In the case of `Cc1ncc2ccc3n(CCCCCNS(=O)(=O)CC(F)(F)F)c(=O)c1n23.Cl` [Example 27, 1,2-Dihydro-3-methyl-1-[5-[(2,2,2-trifluoro)-ethanesulfonamido]pentan-1-yl]-1,4,7b-triazacyclopent[cd]inden-2-one.hydrochloride], the blood-pressure change ([1]; 30 mg/kg, after 7 hrs.) is reported as −17 [after 7 hrs.] mmHg.

With “1,2-Dihydro-3-methyl-1-[6-(trifluoromethanesulfon-amido)hexan-1-yl)-1,4,7b-triazacyclopent[cd]inden-2-one.hydrochloride [Example 28]” the blood-pressure change ([1]; 30 mg/kg, after 3 hrs.) was −13 [after 3 hrs.] mmHg, the “TC (total cholesterol in blood), % of Vehicle” value (hamsters; 30 mg/kg oral for two weeks) was 65.1 % of Vehicle and the “TC-HDL … % of Vehicle” value (hamsters; 30 mg/kg oral for two weeks) was 61.6 % of Vehicle.

For “1,2-Dihydro-3-methyl-1-[3,3-dimethyl-5-(trifluoromethanesulfonamido)pentan-1-yl]-1,4,7b-triazacyclopent[cd]inden-2-one.hydrochloride [Example 40]”, the blood-pressure change ([1]; 30 mg/kg, after 7 hrs.) was −20 [after 7 hrs.] mmHg.

In the case of `CCS(=O)(=O)NCCCCn1c(=O)c2c(C)ncc3ccc1n32.Cl` [Example 35, 1,2-Dihydro-3-methyl-1-[4-(ethanesulfonamido)butan-1-yl]-1,4,7b-triazacyclopent[cd]inden-2-one.hydrochloride], the blood-pressure change ([1]; 30 mg/kg, after 2 hrs.) is reported as −14 [after 2 hrs.] mmHg.

In the case of `CC(C)(C)OC(=O)NCCCCn1c(=O)c2cccc3ncc(c1=O)n32` [Example 17, 4,5-Dihydro-4-[4-(tert-butoxycarbonylamino)butan-1-yl]-3H-1,4,8b-triazaacenaphthylene-3,5-dione], the melting point is reported as 118 to 119 °C.

From patent US20010051631A1, “Tricyclic compounds, their production and use” (priority 1994, published 2001)
